Holding throughout (test): NCI-60 cell line screen, 48 h
Assay [1] concerns CCRF-CEM.
The test system of assay [2] is NCI-H460.
The subject of assay [3] is NCI-H23.
Assay [4] has as its system SK-MEL-2.
Assay [5] concerns HOP-92.
For assay [6], the system named is UO-31.
Assay [7] relates to SN12C.
In assay [8] the test system is IGROV-1.
Assay [9] relates to SF-268.
Assay [10] concerns COLO 205.
Assay [11] concerns HL-60.
The subject of assay [12] is SF-539.
Assay [13] relates to SNB-75.
Assay [14] has as its system UACC-62.
The test system of assay [15] is PC-3.
Assay [16] relates to MDA-MB-231.
Assay [17] relates to MCF7.
For assay [18], the system named is MDA-MB-435.
The subject of assay [19] is DU-145.

Structures are written as SMILES.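 Results reflect a 48-hour exposure of cells in 96-well plates to compound at five concentrations. At the GI50, growth is halved.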 Calls of active or inactive are those of the source. Rule as the data show it: active = GI50 up to about 1.1 µM and inactive = higher.

For the molecule `CN(CCCCN)c1ccc2c(=O)[nH][nH]c(=O)c2c1`, the GI50 in assay [1] was > 100 µM (inactive); in assay [2], > 100 µM (inactive); in assay [3], 2.24 µM (inactive); in [4] it was > 100 µM (inactive); in [5], > 100 µM (inactive); in [6] it was > 100 µM (inactive). Moreover, the GI50 in [7] is > 100 µM (inactive); in assay [8], > 44.9 µM (inactive); in assay [9], 13 µM (inactive); in [10] it was > 100 µM (inactive); in [11] it was > 100 µM (inactive); in assay [12], > 100 µM (inactive). Further, the GI50 in [13] is 88.3 µM (inactive); in [14], > 41.8 µM (inactive).

Consider `NNC(=O)Cn1ccnn1`, for which the GI50 in assay [1], in assay [2], in [15], in [3], in assay [4] and in assay [5] was > 100 µM (inactive) in each case. Besides, the GI50 in assay [16], in assay [17], in assay [18], in [7], in assay [8] and in assay [19] was > 100 µM (inactive) each time. For the same molecule, the GI50 in [9], in assay [10], in assay [11] and in assay [13] was > 100 µM (inactive) throughout.

Regarding `Cc1nc(N)sc1C(=O)/C=C\c1ccc2c(c1)OCO2`, the GI50 in assay [1], in [2], in assay [3], in assay [4], in [5] and in [6] was > 100 µM (inactive) in each case. Also, the GI50 in assay [7], in assay [8], in assay [9], in [10], in assay [11] and in assay [12] was > 100 µM (inactive) each time. Moreover, the GI50 in [13] and in assay [14] was > 100 µM (inactive) throughout.

As for `O=c1ccn([C@@H]2C[C@H](CO)C[S+]([O-])C2)c(=O)[nH]1` (stereo partly drawn), the GI50 in assay [1], in assay [2], in assay [3], in assay [4], in [5] and in assay [6] was > 100 µM (inactive) throughout. The GI50 in [7], in assay [8], in [9], in assay [10], in assay [11] and in assay [12] was > 100 µM (inactive) each time. For the same molecule, the GI50 in assay [13] and in [14] was > 100 µM (inactive) in each case.

On to `CC(C)(c1ccccc1)c1ccc(OC#N)cc1`, for which the GI50 is 40.6 µM (inactive) in assay [1]; 38.5 µM (inactive) in assay [2]; 68.9 µM (inactive) in [3]; > 100 µM (inactive) in assay [4]; 37.3 µM (inactive) in assay [5]; 49.1 µM (inactive) in assay [6]. In addition, the GI50 in [7] is 60.5 µM (inactive); in [8], > 100 µM (inactive); in assay [9], 42 µM (inactive); in assay [10], > 41.3 µM (inactive); in assay [11], 36.4 µM (inactive); in assay [12], 38.1 µM (inactive). Besides, the GI50 in assay [13] is 15.2 µM (inactive); in assay [14], > 95.1 µM (inactive).

Consider `COc1cc2c[n+](C)c3c4cc(OC)c(OC)cc4c(OCCCCCCCCOc4cc5c6cc(OC)c(OC)cc6c[n+](C)c5c5cc(OC)c(OC)cc45)cc3c2cc1OC`, for which the GI50 in assay [1] was 24.8 µM (inactive); in assay [2], > 100 µM (inactive); in [3] it was > 100 µM (inactive); in assay [4], > 100 µM (inactive); in assay [5], > 100 µM (inactive); in assay [6] it was > 100 µM (inactive). Moreover, the GI50 was > 100 µM (inactive) in assay [7]; > 100 µM (inactive) in assay [8]; > 100 µM (inactive) in assay [9]; 2.23 µM (inactive) in assay [11]; 51.4 µM (inactive) in assay [12]; 58.6 µM (inactive) in [13]. Also, the GI50 in [14] is > 100 µM (inactive).

Consider `COc1cc2c(cc1O)[C@@]1(Cc3ccc(OC)c(OC)c3)CCC(=O)N1CC2`, for which the GI50 in [1] was > 100 µM (inactive); in [2], > 100 µM (inactive); in assay [3] it was > 100 µM (inactive); in assay [5], 39.8 µM (inactive); in [6], 63.2 µM (inactive); in [7], > 100 µM (inactive). Besides, the GI50 in assay [8], in assay [9], in assay [10], in assay [11], in [12] and in [13] was > 100 µM (inactive) in each case. Also, the GI50 in [14] is > 100 µM (inactive).

With `COC(=O)C(C#N)=C1c2ccccc2Oc2ccccc21`, the GI50 was 32.4 µM (inactive) in assay [1]; > 100 µM (inactive) in assay [2]; 56.9 µM (inactive) in assay [3]; > 100 µM (inactive) in assay [4]; 30.5 µM (inactive) in assay [5]; > 100 µM (inactive) in assay [6]. The GI50 in assay [7] is 38.9 µM (inactive); in assay [8] it was 64.3 µM (inactive); in assay [9], 63 µM (inactive); in assay [10] it was 92 µM (inactive); in [11] it was 20.8 µM (inactive); in [12] it was 75.7 µM (inactive). The GI50 in assay [13] was 42.2 µM (inactive); in [14] it was 35.7 µM (inactive).

`NC(CCCNc1cccc(O)c1)C(=O)O` (stereo not drawn): the GI50 in assay [1], in assay [2], in assay [4], in [5], in [6] and in [7] was > 100 µM (inactive) in each case. Moreover, the GI50 in assay [9], in assay [10], in assay [11], in [13] and in assay [14] was > 100 µM (inactive) throughout.

With `NC(=O)CC(N/C=C1/N=C(c2ccccc2)OC1=O)C(=O)O` (stereo not drawn), the GI50 in assay [1], in assay [2], in assay [3], in [4], in assay [5] and in assay [6] was > 100 µM (inactive) throughout. Besides, the GI50 in assay [8], in assay [9], in [10], in assay [11], in assay [12] and in assay [13] was > 100 µM (inactive) each time. Moreover, in [14], the GI50 was > 100 µM (inactive).

On to `CC(C)Cc1cc(CCC(=O)Nc2ccccc2[N+](=O)[O-])nc(NC#N)n1`, for which the GI50 in assay [1], in [2], in assay [3], in assay [5], in assay [6] and in assay [7] was > 100 µM (inactive) in each case. For the same molecule, the GI50 in assay [8], in assay [9], in assay [10], in assay [11], in assay [12] and in [13] was > 100 µM (inactive) throughout. The GI50 in [14] was > 100 µM (inactive).

On to `COc1cccc2c1C(=O)c1c(O)c3c(c(O)c1C2=O)C[C@@](O)(C(C)=O)C[C@@H]3OC1CC([N+]([O-])(Cc2ccccc2)Cc2ccccc2)C(O)C(C)O1` (stereo partly drawn), for which the GI50 in [1] is 0.399 µM (active); in assay [2], 0.71 µM (active); in assay [3], 1.3 µM (inactive); in assay [4], 1.98 µM (inactive); in assay [5], 1.52 µM (inactive); in assay [6], 1.27 µM (inactive). For the same molecule, the GI50 in assay [7] was 1.06 µM (active); in assay [8], 1.36 µM (inactive); in assay [11] it was 1.42 µM (inactive); in assay [12], 1.26 µM (inactive); in assay [13] it was 1.48 µM (inactive); in assay [14] it was 1.47 µM (inactive).

In the case of `Cc1ccc(/C=C/C(=O)CCN(C)C)cc1`, the GI50 was 24.7 µM (inactive) in assay [1]; 21.8 µM (inactive) in assay [2]; 27.9 µM (inactive) in [3]; 19.5 µM (inactive) in assay [5]; 18.3 µM (inactive) in [6]; 16.9 µM (inactive) in assay [7]. Moreover, the GI50 in assay [8] is 20.8 µM (inactive); in assay [9], 24.9 µM (inactive); in assay [10], 16 µM (inactive); in assay [11], 21.1 µM (inactive); in [12], 16.9 µM (inactive); in [13], 20.1 µM (inactive). Further, the GI50 in assay [14] is 14.6 µM (inactive).

On to `CCOC(=O)Oc1c(OC)cc(C(=O)NC2CCc3cc(OC)c(OC)c(OC)c3-c3ccc(SC)c(=O)cc32)cc1OC` (stereo not drawn), for which the GI50 in assay [1] is < 0.007 µM (active); in [2], 0.164 µM (active); in [3], 0.0439 µM (active); in assay [4], 0.0466 µM (active); in assay [5], 0.0728 µM (active); in [6] it was 1.5 µM (inactive). In addition, the GI50 in [7] is 0.0542 µM (active); in assay [8] it was 0.0506 µM (active); in assay [9], 0.0916 µM (active); in assay [10] it was 0.0439 µM (active); in assay [11], < 0.007 µM (active); in [12], 0.0245 µM (active). Besides, the GI50 was 0.071 µM (active) in assay [13] and 0.0528 µM (active) in [14].

The values are drawn from ChEMBL document CHEMBL1201862, “PubChem BioAssay data set” (2004).
